This is an account of results in US5985909A, “Cyclopropylindoles and their seco precursors, and their use as prodrugs” (Cancer Research Campaign Technology Limited, priority 1995, dated 1999).

The conditions of assay [1]: background statement, test system not given; cited from earlier work.
The subject of assay [2] is UV4 cells. In words: Growth inhibition (cytotoxicity) in UV4 cells, 18 h drug exposure, methylene blue staining. As to conditions: Cricetulus griseus, 18 h exposure then 78 h growth (Example 9), read-out: IC50 against UV4 cells. Type of assay: cell-based, Chinese hamster. The protocol: The compounds of Examples 1 and 3 show potent cytotoxicity to mammalian tumour cells, and are thus of interest as anticancer drugs. […] For these evaluations, AA8 and UV4 cells were maintained in exponential phase growth (doubling times 14 and 15 h respectively) using Alpha MEM containing fetal calf serum (10% v/v) without antibiotics, and were subcultured twice weekly by trypsinization. Bulk cultures were prepared for experiments by seeding cells in spinner flasks at 10^4 cells/mL in the above medium with addition of penicillin (100 IU/mL) and streptomycin (100 μg/mL). Cultures were initiated in 96-well microtiter trays to give 200 (AA8) or 300 (UV4) cells in 0.05 mL per well. After growth in a CO2 incubator for 24 h, drugs were added in culture medium, using serial two-fold dilutions to provide duplicate cultures at five different concentrations for each of eight drugs (plus eight controls) per tray. After 18 h drugs were removed by washing cultures three times with fresh medium, and the trays were incubated for a further 78 h. Cell density was then determined by staining with methylene blue as described [Finlay, G. J.; Baguley, B. C; Wilson, W. R. Anal. Biochem., 1984, 139, 272-277]. The IC50 was calculated as the drug concentration providing 50% inhibition of growth relative to the controls. […]

Assay [3] concerns AA8 cells. In words: Growth inhibition (cytotoxicity) in AA8 cells, 18 h drug exposure, methylene blue staining. Type of assay: cell-based, Chinese hamster. The note with it: Cricetulus griseus, CHO-AA8, 18 h exposure then 78 h growth, 50% inhibition of growth relative to controls. The protocol:
(§1) The compounds of Examples 1 and 3 show potent cytotoxicity to mammalian tumour cells, and are thus of interest as anticancer drugs. […] For these evaluations, AA8 and UV4 cells were maintained in exponential phase growth (doubling times 14 and 15 h respectively) using Alpha MEM containing fetal calf serum (10% v/v) without antibiotics, and were subcultured twice weekly by trypsinization. Bulk cultures were prepared for experiments by seeding cells in spinner flasks at 10^4 cells/mL in the above medium with addition of penicillin (100 IU/mL) and streptomycin (100 μg/mL). Cultures were initiated in 96-well microtiter trays to give 200 (AA8) or 300 (UV4) cells in 0.05 mL per well. After growth in a CO2 incubator for 24 h, drugs were added in culture medium, using serial two-fold dilutions to provide duplicate cultures at five different concentrations for each of eight drugs (plus eight controls) per tray. After 18 h drugs were removed by washing cultures three times with fresh medium, and the trays were incubated for a further 78 h. Cell density was then determined by staining with methylene blue as described [Finlay, G. J.; Baguley, B. C; Wilson, W. R. Anal. Biochem., 1984, 139, 272-277]. The IC50 was calculated as the drug concentration providing 50% inhibition of growth relative to the controls.

Assay [4] has as its system UV4 cells. Description: Activation of prodrug by E. coli nitroreductase: IC50 in UV4 cells without and with purified enzyme and NADH. As to conditions: for IC50: 18 hours; for fold activation by the enzyme: ratio of IC50 without to IC50 with E. coli nitroreductase, 1080 min. The format is cell-based, Chinese hamster. The protocol:
as §1
The compound was incubated with UV4 cells for 18 hours in 96-well plates under aerobic conditions. The UV4 cell line is a mutant Chinese hamster ovary fibroblast lines derived from the wild-type AA8. It is a UV complementation group 1 mutant, with a defect in the incision step of excision repair [Thompson, L. H. et al Proc. Natl. Acad. Sci (USA), 1980, 78, 3734; Thompson, L. H.; Carrono, A. V. In Cellular responses to DNA Damage, UCLA Symposium on Molecular and Cellular Biology, New Series, Vol. 11 (Freidberg, E. C.; Bridges, B. R.; Eds), Alan R. Liss: New York, 1983: p 125], and is highly sensitive to agents which form bulky DNA monoadducts or crosslinks [Hoy, C.A . et al Cancer Res., 1985, 45, 1737-1747].
The experiment was repeated but in addition purified E. coli nitroreductase enzyme (1 μg/mL) and NADH (1 mM, as cofactor) was added during the entire time of the incubation. […] This represents a 26-fold activation by the enzyme.

The subject of assay [5] is human tumours. The note with it: background statement; cited from earlier work.

For `COc1c(O)c2c(c3cc(C(=O)N4CCc5c4c(O)c(OC)c4[nH]c(C(=O)N6CC7CC78C6=CC(=O)c6[nH]cc(C)c68)cc54)[nH]c13)CCN2C(N)=O` (stereo not shown) [CC-1065], in assay [1], the IC50 entry is given as “low pM range”.

For `COc1cc2cc(C(=O)N3CC(CCl)c4ccc(N)cc43)[nH]c2c(OC)c1OC` (stereo not shown) [Example 1, 6-Amino-3-(chloromethyl)-1-[(5',6',7'-trimethoxyindol-2'-yl)carbonyl]indoline], the IC50 in assay [2] amounted to 0.059 µM; in assay [3], 0.32 µM.

In the case of `COc1cc2cc(C(=O)N3CC(CCl)c4ccc(NC(=O)OCc5ccc([N+](=O)[O-])cc5)cc43)[nH]c2c(OC)c1OC` (stereo not shown) [Example 3, 3-(Chloromethyl)-6-[(4"-nitrobenzyloxycarbonyl)amino]-1-[(5',6',7'-trimethoxyindol-2'-yl)carbonyl]indoline], the IC50 in assay [2] is 19.6 µM; in assay [4] (Cricetulus griseus, aerobic conditions, no enzyme (Example 10), read-out: IC50 in UV4 cells in the absence of E. coli nitroreductase), 11.9 µM; in assay [4] (Cricetulus griseus, aerobic, purified E. coli nitroreductase 1 μg/mL and NADH 1 mM during the entire incubation, read-out: IC50 in UV4 cells in the presence of E. coli nitroreductase) it was 0.46 µM; in assay [3] it was 23 µM. In assay [4], the “fold activation by the enzyme” value came to 26 fold.

As to `COC(=O)c1c(C)[nH]c2c(OC(=O)N3CCN(C)CC3)cc3c(c12)[C@H](CBr)CN3C(=O)c1cc2cc(OC)c(OC)c(OC)c2[nH]1` [KW-2189], the “anticancer activity against a range of human tumours” value in assay [5] is listed as “show anticancer activity against a range of human tumours”.

On to `CCN(CC)c1ccc2cc(C(=O)Nc3ccc4[nH]c(C(=O)N5C[C@@H](CCl)c6c5cc(OC(=O)Nc5ccccc5)c5[nH]cc(C)c65)cc4c3)oc2c1` [carzelesin], for which, in assay [5], the “anticancer activity against a range of human tumours” value is listed as “show anticancer activity against a range of human tumours”.

For `COc1cc2cc(C(=O)N3CC(CCl)c4ccc([N+](=O)[O-])cc43)[nH]c2c(OC)c1OC` (stereo not shown) [example 1(h), 3-(Chloromethyl)-6-nitro-1-[(5',6',7'-trimethoxyindol-2'-yl)carbonyl]indoline], the 50% inhibitory concentration (IC50) in assay [4] (aerobic conditions, no enzyme (Example 10), read-out: IC50 in UV4 cells in the absence of E. coli nitroreductase) is 2.34 µM; in assay [4] (aerobic, purified E. coli nitroreductase 1 μg/mL and NADH 1 mM during the entire incubation, read-out: IC50 in UV4 cells in the presence of E. coli nitroreductase) it was 0.006 µM. In assay [4], the “fold activation by the enzyme” value came out at 400 fold.
